Where two headings read alike, the source gives them in different places.
Experiments:
cardiac fibroblasts [1] = experiment: myocyte conditioned medium transferred to cardiac fibroblasts, cell death (substance added to cardiomyocytes); assay type: cell-based, mouse; settings: for cardiac fibroblast cell death by conditioned medium of cardiomyocytes treated with the substance alone: conditioned medium collected after 24 hours; for cardiac fibroblast cell death by conditioned medium of cardiomyocytes treated with AMP plus inhibitor: inhibitor added to cardiomyocytes at the time of addition of AMP
cardiac fibroblasts [2] = experiment: rescue of cardiac fibroblast cell death induced by ENPP1+ATP myocyte conditioned medium (substance added to fibroblasts); assay type: cell-based, mouse; settings: for cell death of cardiac fibroblasts treated with ENPP1+ATP myocyte conditioned medium in presence of the substance: substance added to cardiac fibroblasts
Excerpt: Unable to readily identity the pro-apoptotic metabolites, the studies sought alternative physiologic principles of approaching the problem. The data has consistently shown that the ENPP1+ATP myocyte conditioned medium caused death of a wide range of non-myocyte cells, but that myocytes themselves are not affected. This could be possibly secondary to a specific receptor that is present in non-myocytes and not in myocytes. However, as non-myocyte cells of different lineages are affected, it was hypothesized that the ability of myocytes to be immune to the conditioned medium likely reflects an inherent cellular property of myocytes that distinguishes itself from that in non-myocyte cells tested by us. As non-myocytes are proliferative and myocytes are non-proliferative, it was hypothesized that the ability to cycle was making the non-myocytes susceptible to the metabolites secreted by the myocyte. To determine whether this was true, the studies harvested primary cardiac fibroblasts and induced cell cycle arrest of freshly harvested cardiac fibroblasts by irradiating them.
It also provided an obvious explanation as to why non-proliferative myocytes are immune to the effects of the metabolite(s). A nucleotide balance between the content of purines and pyrimidines available to cycling cells is critical to avoid genotoxic stress and maintain genomic stability. It was hypothesized that disruption of the nucleotide biosynthetic pathways in non-myocyte cells and an imbalance of purine versus pyrimidine nucleotides was inducing genotoxic stress and initiating a DNA damage response in proliferating non-myocytes. The studies treated cardiac fibroblasts with ENPP1+ATP myocyte conditioned medium for 24 hours and measured the content of nucleoside monophosphate and nucleoside triphosphates in treated cardiac fibroblasts by LC/MS-MS. […] To determine whether this is true, the studies attempted to rescue cell death of cardiac fibroblasts by adding uridine or deoxycytidine to the ENPP1+ATP myocyte conditioned medium. Cardiac fibroblasts were treated with the ENPP1+ATP myocyte conditioned medium but uridine or deoxycytidine or both were added to the cardiac fibroblasts at the time of addition of ENPP1+ATP myocyte conditioned medium (FIG. 5C). […] Deoxycytidine serves as a precursor of dCTP synthesis via the enzyme deoxycytidine kinase.
Pyrimidine biosynthesis occurs via a sequence of well-regulated steps (FIG. 5H), where carbamoyl phosphate is converted to carbamoyl aspartate and then to dihydroorotate. Dihydroorotate dehydrogenase (DHODH) then converts dihydroorotate to the pyrimidine orotate. In the presence of phosphoribosyl pyrophosphate (PRPP), orotate is converted by phosphoribosyl transferase activity of UMP synthase to orotidine monophosphate (OMP) and then decarboxylated by OMP decarboxylase activity of UMP synthase to uridine monophosphate (UMP). To determine which steps in pyrimidine biosynthesis are affected in cycling non-myocytes, the studies treated cardiac fibroblasts with ENPP1+ATP myocyte conditioned medium and 24 hours later harvested the cells and subjected the cardiac fibroblasts to mass spectrometry to determine metabolites in the pyrimidine biosynthesis pathway. […] As orotate levels were increased but orotidine levels decreased in cardiac fibroblasts treated with ENPP1+ATP myocyte conditioned medium, it was hypothesized that inhibition was occurring at the OMP synthesis step from orotate and PRPP (orotate phosphoribosyl transferase). […]

[3] = test system: primary mouse embryonic fibroblasts (mEF); experiment: mouse embryonic fibroblasts treated with ENPP1+ATP myocyte conditioned medium, cell death; assay type: cell-based
[4] = test system: ENPP1 over-expressing cardiac fibroblasts; experiment: co-culture of ENPP1 over-expressing cardiac fibroblasts with rodent ventricular cardiomyocytes plus ATP; assay type: cell-based, mouse
cardiac fibroblasts [5] = experiment: direct treatment of cardiac fibroblasts with metabolites or inhibitors, cell death and rescue; assay type: cell-based, mouse
[6] = test system: C57BL/6 animals subjected to ischemic cardiac injury
[7] = test system: gamma H2A.X and p53Ser15 phosphorylation in non-myocyte cells; experiment: immunostaining of DNA damage response in non-myocyte cells of injured hearts; assay type: in vivo, mouse; settings: hearts of myricetin treated animals
ENPP1 = biological target: T1, ENPP1 (UniProt P22413); experiment: cell free luciferase based luminescent assay for ENPP1 inhibitors; assay type: biochemical
T1 sequence (P22413 1-925): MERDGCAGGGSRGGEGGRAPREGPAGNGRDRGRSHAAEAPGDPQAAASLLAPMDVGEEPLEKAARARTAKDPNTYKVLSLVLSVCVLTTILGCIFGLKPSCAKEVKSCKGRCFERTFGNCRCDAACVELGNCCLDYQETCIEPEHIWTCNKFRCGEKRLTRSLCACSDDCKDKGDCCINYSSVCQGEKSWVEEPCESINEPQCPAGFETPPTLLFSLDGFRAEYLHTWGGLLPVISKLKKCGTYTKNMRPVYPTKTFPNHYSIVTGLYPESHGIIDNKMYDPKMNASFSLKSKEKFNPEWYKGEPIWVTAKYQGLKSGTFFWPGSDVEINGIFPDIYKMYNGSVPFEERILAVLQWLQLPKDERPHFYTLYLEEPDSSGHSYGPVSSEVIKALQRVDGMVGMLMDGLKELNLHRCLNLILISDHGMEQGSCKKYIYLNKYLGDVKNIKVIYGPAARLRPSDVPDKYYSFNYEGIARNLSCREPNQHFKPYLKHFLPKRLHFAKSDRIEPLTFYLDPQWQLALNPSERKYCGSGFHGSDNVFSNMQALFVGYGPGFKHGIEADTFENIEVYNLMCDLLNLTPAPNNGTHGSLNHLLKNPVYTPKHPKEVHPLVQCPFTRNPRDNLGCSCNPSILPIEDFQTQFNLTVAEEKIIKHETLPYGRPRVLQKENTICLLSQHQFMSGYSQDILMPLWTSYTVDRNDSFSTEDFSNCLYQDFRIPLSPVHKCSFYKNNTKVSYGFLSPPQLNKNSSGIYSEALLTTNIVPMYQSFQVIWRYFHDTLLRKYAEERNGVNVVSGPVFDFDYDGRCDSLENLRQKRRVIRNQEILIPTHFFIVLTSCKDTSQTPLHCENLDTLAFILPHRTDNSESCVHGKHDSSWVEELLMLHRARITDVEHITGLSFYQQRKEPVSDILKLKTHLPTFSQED

pyrimidine biosynthesis = experiment: metabolomic analysis of hearts and serum after cardiac injury; assay type: in vivo, mouse
[8] = uridine continuous infusion for 14 days
[9] = uridine continuous infusion for 14 days, day 7 after injury, mean±S.E.M., n=15
[10] = myricetin versus vehicle treated injured hearts
[11] = myricetin versus vehicle, day 3
[12] = 30 mg/kg myricetin intra-peritoneally daily for 14 days
[13] = 30 mg/kg myricetin intra-peritoneally daily for 14 days, day 7 after injury, n=15

In the case of `Nc1ncnc2c1ncn2[C@@H]1O[C@H](CO)[C@@H](O)[C@H]1O` [adenosine, Adenosine], the “cardiac fibroblast cell death by conditioned medium of cardiomyocytes treated with the substance alone” value (cardiac fibroblasts [1]) is reported as “unable to induce cell death”.

With `Nc1ncnc2nc(-c3ccc(N4CCOCC4)nc3)cc(-c3cccc(Br)c3)c12` [ABT-702] the “cardiac fibroblast cell death by conditioned medium of cardiomyocytes treated with AMP plus inhibitor” value (cardiac fibroblasts [1]) was “attenuated cell death”.

`Nc1ncnc2c1ncn2[C@@H]1O[C@H](COP(=O)(O)CP(=O)(O)O)[C@@H](O)[C@H]1O` [AMP-CP] was tested, and the “cardiac fibroblast cell death by conditioned medium of cardiomyocytes treated with AMP plus inhibitor” value (cardiac fibroblasts [1]) was “significantly increases cardiac fibroblast cell death”.

For `C[C@H](Nc1cc(Cl)nc2c1cnn2[C@@H]1O[C@H](COP(=O)(O)CP(=O)(O)O)[C@@H](O)[C@H]1O)c1ccccc1F` [AB680], the “cardiac fibroblast cell death by conditioned medium of cardiomyocytes treated with AMP plus inhibitor” value (cardiac fibroblasts [1]) was “significantly increases cardiac fibroblast cell death”.

`CO[C@@]12[C@H](COC(N)=O)C3=C(C(=O)C(C)=C(N)C3=O)N1C[C@@H]1N[C@@H]12` [mitomycin C] was tested, and the “cell death of cardiac fibroblasts treated with ENPP1+ATP myocyte conditioned medium in presence of the substance” value (shortened to “cell death … of the substance”) (cardiac fibroblasts [2]) was “resistant to cell death” and the “cell death of mEF treated with ENPP1+ATP myocyte conditioned medium after cell cycle arrest” value [3] was “prevented cell death”.

`Nc1ccn([C@H]2C[C@H](O)[C@@H](CO)O2)c(=O)n1` [deoxycytidine] was tested, and the “cell death … of the substance” value (cardiac fibroblasts [2]) was “completely rescued cell death”.

With `Nc1ncnc2c1ncn2[C@@H]1O[C@H](COP(=O)(O)OP(=O)(O)OP(=O)(O)O)[C@@H](O)[C@H]1O` [ATP] the “reduction in the number of ENPP1 over-expressing cardiac fibroblasts” value ([4]; ATP added to co-culture with neonatal rat ventricular cardiomyocytes, within 48 hours) was 75%.

In the case of `Nc1ncnc2c1ncn2[C@@H]1O[C@H](COP(=O)(O)O)[C@@H](O)[C@H]1O` [AMP, Adenosine monophosphate], the “cardiac fibroblast cell death by conditioned medium of cardiomyocytes treated with the substance alone” value (cardiac fibroblasts [1]) is reported as “caused cell death” and the “cell death of cardiac fibroblasts treated directly with the substance(s)” value (“cell death … with the substance(s)” for short) (cardiac fibroblasts [5]) is reported as “did not induce cell death”.

For `CCNC(=O)[C@H]1O[C@@H](n2cnc3c(N)ncnc32)[C@H](O)[C@@H]1O` [NECA], the “cardiac fibroblast cell death by conditioned medium of cardiomyocytes treated with the substance alone” value (cardiac fibroblasts [1]) was “did not cause fibroblast cell death”.

`Nc1ncnc2nc[nH]c12` [adenine, Adenine] was tested, and the “cell death of cardiac fibroblasts after removal of the compound from the set of 7 compounds” value (cardiac fibroblasts [5]) was “no cell death” and the “cell death … with the substance(s)” value (cardiac fibroblasts [5]) was “no cell death was observed”.

For `O=c1ccn([C@@H]2O[C@H](CO)[C@@H](O)[C@H]2O)c(=O)[nH]1` [uridine, Uridine], the “cell death … of the substance” value (cardiac fibroblasts [2]) was “completely rescued cell death”, the “cell death of cardiac fibroblasts treated with adenine and adenosine plus the substance” value (cardiac fibroblasts [5]) was “rescue of cell death” and the “cell death of cardiac fibroblasts treated with brequinar plus uridine” value (cardiac fibroblasts [5]) was “rescue”. For the same molecule, the “cell death of cardiac fibroblasts treated with the 7 compounds together with uridine” value (cardiac fibroblasts [5]) was “cell death was prevented”, the “animals with severe post infarct fibrosis (>40% of LV surface area)” value [6, 8] was “none” and the “fraction of animals with severe depression in EF (less than 20%)” value [6, 8] was 13%. The “end systolic ventricular diameters” value ([6]; uridine continuous infusion for 14 days, versus vehicle) was “trend towards better preservation”, the “ejection fraction (EF)” value [6, 9] was 37.02±3.12% and the “fractional shortening (FS)” value [6, 9] was 18.01±1.68%. For the same molecule, the “heart weight/body weight ratios” value ([6]; uridine, versus vehicle) was “decreased”, the capillary density ([6]; uridine, 4 weeks following injury) was “significantly increased” and the “fibrosis measured at the apex and mid ventricle” value ([6]; uridine, 4 weeks post injury, versus vehicle) was “decreased fibrosis”.

With `O=C(O)c1cc(=O)[nH]c(=O)n1[C@@H]1O[C@H](COP(=O)(O)O)[C@@H](O)[C@H]1O` [OMP, orotidine monophosphate] the “cell death … of the substance” value (cardiac fibroblasts [2]) was “completely rescued cell death” and the “cell death of cardiac fibroblasts treated with adenine and adenosine plus the substance” value (cardiac fibroblasts [5]) was “rescue of cell death”.

In the case of `COc1ccc(-c2nc([C@@H](C)Sc3nc(N)cc(N)n3)c(C)s2)cc1OCCN1CCOCC1` [DI-87], the “rescue by deoxycytidine of ENPP1+ATP conditioned medium induced cell death in presence of deoxycytidine kinase inhibitor” value (cardiac fibroblasts [2]) is reported as “unable to prevent cell death”.

In the case of `O=P(O)(O)OP(=O)(O)O` [PPi, pyrophosphate], the “cardiac fibroblast cell death by conditioned medium of cardiomyocytes treated with the substance alone” value (cardiac fibroblasts [1]) is reported as “not”.

In the case of `O=c1c(O)c(-c2cc(O)c(O)c(O)c2)oc2cc(O)cc(O)c12` [myricetin], the “cardiac fibroblast cell death with conditioned medium of cardiomyocytes treated with ENPP1+ATP plus substance, versus ENPP1+ATP conditioned medium” value (cardiac fibroblasts [1]) is reported as “significant reduction in cell death”, the “p53Ser15 phosphorylation in non-myocyte cells” value [7] is reported as “attenuated” and the “expression of gamma H2A.X in non-myocyte cells” value ([7]; 7 days following injury) is reported as “attenuated expression”. The “inhibition of ENPP1 enzymatic activity” value (ENPP1) was ~99%, the “cell death of cardiac fibroblasts in co-culture after addition of ATP” value ([4]; concomitant addition of myricetin (10 uM)) was “significantly attenuated cell death” and the “carbamoyl aspartate in the hearts” value (pyrimidine biosynthesis; myricetin versus vehicle injected animals (FIG. 8K legend)) was “decreased”. For the same molecule, the “carbamoyl phosphate levels in the injured regions of the heart” value (pyrimidine biosynthesis; [10]) was “decrease”, the “level of cytidine in the injured regions of the heart” value (pyrimidine biosynthesis; [10]) was “significant increase” and the “level of uridine in the injured regions of the heart” value (pyrimidine biosynthesis; [10]) was “significant increase”. For the same molecule, the deoxyuridine in serum (pyrimidine biosynthesis; [11]) was “increased”, the orotate in serum (pyrimidine biosynthesis; [11]) was “decrease” and the orotidine in serum (pyrimidine biosynthesis; myricetin versus vehicle, day 7) was “increased”. For the same molecule, the “fraction of animals with severe fibrosis (>40% of the LV surface area)” value [6, 12] was 15%, the “fraction of animals with severe heart failure (EF<20%)” value [6, 12] was 23% and the “LVIDs (ventricular chamber size)” value [6, 13] was 3.68±0.23. For the same molecule, the ejection fraction [6, 13] was 38.04±3.74%, the fractional shortening [6, 13] was 18.67±2.05% and the body weight ([6]; mouse, in vivo) was “without any change”. For the same molecule, the capillary density ([6]; myricetin, versus vehicle) was “significant increase”, the ventricular hypertrophy ([6]; myricetin, versus vehicle) was “decreased” and the “area of scarring at the mid ventricular and apical regions” value ([6]; myricetin, 4 weeks post injury, versus vehicle) was “significantly reduced”.

With `Cc1c(-c2ccc(-c3ccccc3F)cc2)nc2ccc(F)cc2c1C(=O)O` [brequinar] the “cell death … with the substance(s)” value (cardiac fibroblasts [5]) was “cardiac fibroblast cell death”.
